# Test results taken from publication PMC10713630, “Elucidation of the structural basis for ligand binding and translocation in conserved insect odorant receptor co-receptors” (Nature Communications, 2023).
# Several values for one entry are separate records, joined by “and”; a condition that tells them apart may be missing. Equal values may be shown once. Entries after “also recorded” stand apart in the source; their conditions may differ.
# Tests used:
# Type in all cases: cell-based
# DmelOrco M210W = DmelOrco M210W (Drosophila melanogaster, UniProt Q9VNB5, M210W); test: TEVC recording of VUAA1-induced current, DmelOrco M210W in Xenopus oocytes
# Sequence of DmelOrco M210W (Q9VNB5 whole entry M210W, the tested form may be a part): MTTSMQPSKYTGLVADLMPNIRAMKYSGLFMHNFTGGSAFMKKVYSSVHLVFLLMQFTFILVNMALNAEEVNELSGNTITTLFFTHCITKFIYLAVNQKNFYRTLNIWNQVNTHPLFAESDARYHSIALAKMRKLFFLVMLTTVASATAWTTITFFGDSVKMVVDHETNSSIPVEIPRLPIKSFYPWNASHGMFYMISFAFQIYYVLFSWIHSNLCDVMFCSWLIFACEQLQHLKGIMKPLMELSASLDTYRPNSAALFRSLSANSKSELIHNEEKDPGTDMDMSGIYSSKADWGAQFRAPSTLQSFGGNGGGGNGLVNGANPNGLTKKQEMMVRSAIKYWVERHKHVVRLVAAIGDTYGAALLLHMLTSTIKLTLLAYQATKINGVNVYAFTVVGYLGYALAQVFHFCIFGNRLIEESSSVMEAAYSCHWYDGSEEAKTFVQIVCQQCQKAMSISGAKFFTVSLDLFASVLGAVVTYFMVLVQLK
# From the text: (§1) All Orco gene sequences were optimized[63] for protein expression in Xenopus laevis oocytes with the GenSmartTM Codon optimization Tool and subcloned into a pGEMHE-derived vector. The wildtype gene of Drosophila melanogaster Orco (DmelOrco) was synthesized by Genscript and subcloned with XmaI/XhoI cloning sites. Site-directed mutagenesis of DmelOrco was done by PCR with the Q5® site directed mutagenesis kit (NEB) using primers optimized with the NEBase Changer online tool and following the supplier’s protocol. After transformation of commercial competent bacteria (XL10 Gold) by standard heat-shock protocol and overnight culture in ampicillin-containing LB plates, positive clones were identified by electrophoretic restriction profile and external sequencing (Genewiz). DNAs of positive clones were amplified with Qiagen MidiPrep Kit and the ORF was fully sequenced. For in vitro transcription, DNAs were linearized with restriction enzyme NotI that cuts a unique site in the 3′ region of the polyA tail. The linearized DNAs were purified by the standard phenol:chloroform extraction method and transcribed into mRNA using the T7 ultra mMessage mMachine kit (Thermo Fisher Scientific). mRNAs were purified with the NucleoSpin RNA plus XS kit (Machery-Nagel). DNA and RNA were analyzed by agarose-gel electrophoresis and quantified by spectrophotometry.
# Xenopus laevis oocytes were prepared, as previously described. Briefly, oocytes were defolliculated after surgical retrieval by type 1 A collagenase over 2-3 h under smooth horizontal agitation. They were manually selected and incubated at 19 °C in modified-Barth’s solution (1 mM KCl, 0.82 mM MgSO4, 88 mM NaCl, 2.4 mM NaHCO3, 0.41 mM CaCl2, Ca(NO3)2 0.3 mM, 16 mM HEPES, pH 7.4) supplemented with 100 U mL^−1 of penicillin and streptomycin and 0.1 mg mL^−1 of gentamycin. Each oocyte was micro-injected with the Nanoject instrument (Drummond) with 50 nL of 20 ng of mRNA coding for the Orco of interest. Injected oocytes were incubated individually in 96-well plates for 4 days at 19 °C in the same buffer. Different batches of oocytes have been tested per construct. The results of the mutants of interest have been confirmed by a second set of experiments comparing the amplitudes with WT in the same day and from the same batch of oocytes (Supplementary Fig. 11).
# Whole cell currents were recorded with the two-electrode voltage-clamp (TEVC) technique with the HiClamp robot (MultiChannel System). Microelectrodes were filled with 3 M KCl. The high K^+ buffer used for recordings was composed of 91 mM KCl, 1 mM MgCl2, 1.8 mM CaCl2, 5 mM HEPES, pH 7.4. Membrane voltage was clamped to −50 mV and VUAA1 was applied for 60 s. Data were extracted with M. Vivaudou’s programs[65] and statistically analyzed with Prism 8 (Graphpad).
# DmelOrco S146V = DmelOrco S146V (Drosophila melanogaster, UniProt Q9VNB5, S146V); test: TEVC recording of VUAA1-induced current, DmelOrco S146V in Xenopus oocytes
# Sequence of DmelOrco S146V (Q9VNB5 whole entry S146V, the tested form may be a part): as the sequence (Q9VNB5 whole entry M210W, the tested form may be a part) above, with S146V, W210M counted along it
# From the text: as §1
# Xenopus laevis oocytes were prepared, as previously described. Briefly, oocytes were defolliculated after surgical retrieval by type 1 A collagenase over 2-3 h under smooth horizontal agitation. They were manually selected and incubated at 19 °C in modified-Barth’s solution (1 mM KCl, 0.82 mM MgSO4, 88 mM NaCl, 2.4 mM NaHCO3, 0.41 mM CaCl2, Ca(NO3)2 0.3 mM, 16 mM HEPES, pH 7.4) supplemented with 100 U mL^−1 of penicillin and streptomycin and 0.1 mg mL^−1 of gentamycin. […]
# (§2) Whole cell currents were recorded with the two-electrode voltage-clamp (TEVC) technique with the HiClamp robot (MultiChannel System). […] Data were extracted with M. Vivaudou’s programs[65] and statistically analyzed with Prism 8 (Graphpad).
# DmelOrco Y397A = DmelOrco Y397A (Drosophila melanogaster, UniProt Q9VNB5, Y397A); test: TEVC recording of VUAA1-induced current, DmelOrco Y397A in Xenopus oocytes; parameters: VUAA1-induced current, Y397A: unit not given here
# Sequence of DmelOrco Y397A (Q9VNB5 whole entry Y397A, the tested form may be a part): as the sequence (Q9VNB5 whole entry M210W, the tested form may be a part) above, with W210M, Y397A counted along it
# From the text: as §1, with “The linearized DNAs were purified by the standard phenol:chloroform extraction method and transcribed into mRNA using the T7 ultra mMessage mMachine kit (Thermo Fisher Scientific). mRNAs were purified with the NucleoSpin RNA plus XS kit (Machery-Nagel).” left out, “spectrophotometry. […]” for “spectrophotometry.”
# as §2
# DmelOrco Y397F = DmelOrco Y397F (Drosophila melanogaster, UniProt Q9VNB5, Y397F); test: TEVC recording of VUAA1-induced current, DmelOrco Y397F in Xenopus oocytes; parameters: VUAA1-induced current, Y397F: unit not given here
# Sequence of DmelOrco Y397F (Q9VNB5 whole entry Y397F, the tested form may be a part): as the sequence (Q9VNB5 whole entry M210W, the tested form may be a part) above, with W210M, Y397F counted along it
# From the text: as §1, with “The linearized DNAs were purified by the standard phenol:chloroform extraction method and transcribed into mRNA using the T7 ultra mMessage mMachine kit (Thermo Fisher Scientific). mRNAs were purified with the NucleoSpin RNA plus XS kit (Machery-Nagel).” left out, “spectrophotometry. […]” for “spectrophotometry.”
# as §2
# DmelOrco S146W = DmelOrco S146W (Drosophila melanogaster, UniProt Q9VNB5, S146W); test: TEVC recording of VUAA1-induced current, DmelOrco S146W in Xenopus oocytes; details: 500 µM VUAA1, TEVC
# Sequence of DmelOrco S146W (Q9VNB5 whole entry S146W, the tested form may be a part): as the sequence (Q9VNB5 whole entry M210W, the tested form may be a part) above, with S146W, W210M counted along it
# From the text: as §1, with “The linearized DNAs were purified by the standard phenol:chloroform extraction method and transcribed into mRNA using the T7 ultra mMessage mMachine kit (Thermo Fisher Scientific). mRNAs were purified with the NucleoSpin RNA plus XS kit (Machery-Nagel).” left out, “spectrophotometry. […]” for “spectrophotometry.”
# as §2
# DmelOrco T80A = DmelOrco T80A (Drosophila melanogaster, UniProt Q9VNB5, T80A); test: TEVC recording of VUAA1-induced current, DmelOrco T80A in Xenopus oocytes; parameters: VUAA1-induced current, T80A: unit not given here
# Sequence of DmelOrco T80A (Q9VNB5 whole entry T80A, the tested form may be a part): as the sequence (Q9VNB5 whole entry M210W, the tested form may be a part) above, with T80A, W210M counted along it
# From the text: as §1, with “The linearized DNAs were purified by the standard phenol:chloroform extraction method and transcribed into mRNA using the T7 ultra mMessage mMachine kit (Thermo Fisher Scientific). mRNAs were purified with the NucleoSpin RNA plus XS kit (Machery-Nagel).” left out, “spectrophotometry. […]” for “spectrophotometry.”
# as §2
# DmelOrco Y400S = DmelOrco Y400S (Drosophila melanogaster, UniProt Q9VNB5, Y400S); test: TEVC recording of VUAA1-induced current, DmelOrco Y400S in Xenopus oocytes; details: 500 µM VUAA1, TEVC
# Sequence of DmelOrco Y400S (Q9VNB5 whole entry Y400S, the tested form may be a part): as the sequence (Q9VNB5 whole entry M210W, the tested form may be a part) above, with W210M, Y400S counted along it
# From the text: as §1, with “The linearized DNAs were purified by the standard phenol:chloroform extraction method and transcribed into mRNA using the T7 ultra mMessage mMachine kit (Thermo Fisher Scientific). mRNAs were purified with the NucleoSpin RNA plus XS kit (Machery-Nagel).” left out, “spectrophotometry. […]” for “spectrophotometry.”
# as §2
# DmelOrco Y390A = DmelOrco Y390A (Drosophila melanogaster, UniProt Q9VNB5, Y390A); test: TEVC recording of VUAA1-induced current, DmelOrco Y390A in Xenopus oocytes; details: 500 µM VUAA1, TEVC
# Sequence of DmelOrco Y390A (Q9VNB5 whole entry Y390A, the tested form may be a part): as the sequence (Q9VNB5 whole entry M210W, the tested form may be a part) above, with W210M, Y390A counted along it
# From the text: as §1, with “The linearized DNAs were purified by the standard phenol:chloroform extraction method and transcribed into mRNA using the T7 ultra mMessage mMachine kit (Thermo Fisher Scientific). mRNAs were purified with the NucleoSpin RNA plus XS kit (Machery-Nagel).” left out, “spectrophotometry. […]” for “spectrophotometry.”
# as §2
# DmelOrco F84S = DmelOrco F84S (Drosophila melanogaster, UniProt Q9VNB5, F84S); test: TEVC recording of VUAA1-induced current, DmelOrco F84S in Xenopus oocytes; details: 500 µM VUAA1, TEVC
# Sequence of DmelOrco F84S (Q9VNB5 whole entry F84S, the tested form may be a part): as the sequence (Q9VNB5 whole entry M210W, the tested form may be a part) above, with F84S, W210M counted along it
# From the text: as §1, with “The linearized DNAs were purified by the standard phenol:chloroform extraction method and transcribed into mRNA using the T7 ultra mMessage mMachine kit (Thermo Fisher Scientific). mRNAs were purified with the NucleoSpin RNA plus XS kit (Machery-Nagel).” left out, “spectrophotometry. […]” for “spectrophotometry.”
# as §2
smiles,measurement,setting,value
"CCc1ccc(NC(=O)CSc2nnc(-c3cccnc3)n2CC)cc1 [VUAA1, N-(4-ethylphenyl)−2-((4-ethyl-5-(3-pyridinyl)−4H-1,2,4-triazol-3-yl)thio)acetamide]",EC50,DmelOrco M210W,120 µM
same,Current induced by VUAA1 (median),"DmelOrco M210W; 500 µM VUAA1, TEVC, M210W",2.12 µA
same,Response to VUAA1 compared with WT,"DmelOrco M210W; 500 µM VUAA1, TEVC, M210W",significant decrease in the response
same,Imax,"DmelOrco M210W; concentration-effect curve of VUAA1, TEVC, M210W",1.50 µA
same,EC50,DmelOrco S146V,82.2 µM
same,Current induced by VUAA1 (median),"DmelOrco S146V; 500 µM VUAA1, TEVC, S146V",11.68 µA
same,Imax,"DmelOrco S146V; concentration-effect curve of VUAA1, TEVC, S146V",6.99 µA
same,Response to VUAA1 compared with WT,"DmelOrco Y397A; 500 µM VUAA1, TEVC, Y397A",did not significantly affect the amplitude of activation; also recorded: did not significantly change the amplitude of activation
same,"VUAA1-induced current, Y397A","DmelOrco Y397A; Fig.4b, individual oocytes",3.14 and 11.04 and 1.66 and 7.27 and 3.17 and 5.5 and 5.32 and 6.03 and 4.8 and 7.35 and 2.62
same,Response to VUAA1 compared with WT,"DmelOrco Y397F; 500 µM VUAA1, TEVC, Y397F",did not significantly change the amplitude of activation
same,"VUAA1-induced current, Y397F","DmelOrco Y397F; Fig.4b, individual oocytes",14.1 and 7.4 and 4.67 and 7.65 and 5.6 and 7.22 and 3.47 and 4.51 and 1.74 and 9.4 and 9.69 and 15.89
same,Response to VUAA1 compared with WT,DmelOrco S146W,significant decrease in the response
same,Response to VUAA1 compared with WT,"DmelOrco T80A; 500 µM VUAA1, TEVC, T80A",did not significantly affect the amplitude of activation
same,"VUAA1-induced current, T80A","DmelOrco T80A; Fig.4b, individual oocytes",2.4 and 1.22 and 3.78 and 5.59 and 4.73 and 0.91 and 2.46 and 0.65 and 0.56 and 4.38 and 3.16 and 5.8
same,Response to VUAA1 compared with WT,DmelOrco Y400S,did not significantly change the response
same,Response to VUAA1 compared with WT,DmelOrco Y390A,did not show significant change
same,Response to VUAA1 compared with WT,DmelOrco F84S,decreased the response
